The source of these data is US20040156869A1, “2-substituted quinazolin-4-ylamine analogues” (Neurogen Corporation, priority 2002, published 2004).

One may read the Ki as a measure of affinity in units of concentration, obtained from inhibition or displacement. Low values mean a stronger hold on the target, high ones a looser hold on the target.

A value given as a limit tells only on which side of the number the result lay.

In the first test the target is human capsaicin receptor (VR1) (Homo sapiens, UniProt Q8NER1). The test is described as follows: Capsaicin receptor binding assay ([3H]RTX competition, VR1-transfected HEK293 membranes).
Sequence of human capsaicin receptor (VR1) (Q8NER1 whole entry): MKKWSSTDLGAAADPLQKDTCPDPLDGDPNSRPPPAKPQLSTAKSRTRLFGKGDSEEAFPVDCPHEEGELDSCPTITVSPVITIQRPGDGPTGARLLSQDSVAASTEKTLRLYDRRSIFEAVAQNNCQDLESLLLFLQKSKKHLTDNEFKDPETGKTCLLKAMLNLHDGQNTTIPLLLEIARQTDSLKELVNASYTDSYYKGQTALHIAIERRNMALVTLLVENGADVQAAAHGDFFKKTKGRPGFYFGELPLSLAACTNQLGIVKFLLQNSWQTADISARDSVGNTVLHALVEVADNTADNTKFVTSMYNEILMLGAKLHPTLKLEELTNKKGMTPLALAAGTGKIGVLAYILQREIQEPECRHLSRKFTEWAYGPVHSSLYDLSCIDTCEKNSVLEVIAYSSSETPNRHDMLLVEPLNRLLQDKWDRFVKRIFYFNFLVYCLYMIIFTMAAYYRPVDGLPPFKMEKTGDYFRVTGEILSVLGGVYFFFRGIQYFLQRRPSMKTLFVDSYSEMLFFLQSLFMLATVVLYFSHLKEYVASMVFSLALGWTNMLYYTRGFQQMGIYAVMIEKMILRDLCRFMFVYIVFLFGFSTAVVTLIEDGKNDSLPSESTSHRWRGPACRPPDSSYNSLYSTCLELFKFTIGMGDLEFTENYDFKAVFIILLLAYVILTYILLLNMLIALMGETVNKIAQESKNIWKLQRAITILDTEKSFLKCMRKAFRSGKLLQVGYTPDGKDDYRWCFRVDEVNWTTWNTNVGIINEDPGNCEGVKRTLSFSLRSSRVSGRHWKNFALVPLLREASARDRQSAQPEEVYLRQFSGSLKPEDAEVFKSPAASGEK
Settings: not given
Turning to `CC(c1ccccc1)N(C)Cc1nc(Nc2ccc(C(F)(F)F)cc2)c2ccc(-c3ncccc3C(F)(F)F)cc2n1` (stereo not drawn) [Compound 323, [2-{[Methyl-(1-phenyl-ethyl)-amino]-methyl}-7-(3-trifluoromethyl-pyridin-2-yl)-quinazolin-4-yl]-(4-trifluoromethyl-phenyl)-amine], the Ki is less than 1000 nM. The same measure, in the same setting: the value for `CN(Cc1nc(Nc2ccc(C(F)(F)F)cc2)c2ccc(-c3ncccc3C(F)(F)F)cc2n1)C1CCc2ccccc21` (stereo not drawn) [Compound 324, [2-[(Indan-1-yl-methyl-amino)-methyl]-7-(3-trifluoromethyl-pyridin-2-yl)-quinazolin-4-yl]-(4-trifluoromethyl-phenyl)-amine] was less than 1000 nM; that for `CCCN(C)Cc1nc(Nc2ccc(C(F)(F)F)cc2)c2ccc(-c3ncccc3C(F)(F)F)cc2n1` [Compound 330] was less than 1000 nM. The same measure, in the same setting: next, `CCCCN(C)Cc1nc(Nc2ccc(C(F)(F)F)cc2)c2ccc(-c3ncccc3C(F)(F)F)cc2n1` [Compound 331]: less than 1000 nM; `CCN(Cc1nc(Nc2ccc(C(F)(F)F)cc2)c2ccc(-c3ncccc3C(F)(F)F)cc2n1)C(C)C` [Compound 332]: less than 1000 nM.

Molecule `C=CCN(CC=C)Cc1nc(Nc2ccc(C(F)(F)F)cc2)c2ccc(-c3ncccc3C(F)(F)F)cc2n1` [Compound 333] yielded a Ki of less than 1000 nM. As for `CCCCN(CC)Cc1nc(Nc2ccc(C(F)(F)F)cc2)c2ccc(-c3ncccc3C(F)(F)F)cc2n1` [Compound 334], the Ki was less than 1000 nM. Same read-out and setting: the value for `CCCCCCN(C)Cc1nc(Nc2ccc(C(F)(F)F)cc2)c2ccc(-c3ncccc3C(F)(F)F)cc2n1` [Compound 336] was less than 1000 nM. Consider `CC(C)N(C)Cc1nc(Nc2ccc(C(F)(F)F)cc2)c2ccc(-c3ncccc3C(F)(F)F)cc2n1` [Compound 338], for which the Ki was less than 1000 nM. On the same count and under the same terms, next, `COCCN(CCOC)Cc1nc(Nc2ccc(C(F)(F)F)cc2)c2ccc(-c3ncccc3C(F)(F)F)cc2n1` [Compound 344, [2-{[Bis-(2-methoxy-ethyl)-amino]-methyl}-7-(3-trifluoromethyl-pyridin-2-yl)-quinazolin-4-yl]-(4-trifluoromethyl-phenyl)-amine]: less than 1000 nM; `CCCCCN(CCCCC)Cc1nc(Nc2ccc(C(F)(F)F)cc2)c2ccc(-c3ncccc3C(F)(F)F)cc2n1` [Compound 345, [2-Dipentylaminomethyl-7-(3-trifluoromethyl-pyridin-2-yl)-quinazolin-4-yl]-(4-trifluoromethyl-phenyl)-amine]: less than 1000 nM; `CCCCCCN(CCCCCC)Cc1nc(Nc2ccc(C(F)(F)F)cc2)c2ccc(-c3ncccc3C(F)(F)F)cc2n1` [Compound 346, [2-Dihexylaminomethyl-7-(3-trifluoromethyl-pyridin-2-yl)-quinazolin-4-yl]-(4-trifluoromethyl-phenyl)-amine]: less than 1000 nM.

Consider `CC(c1ccccc1)N(C)Cc1nc(Nc2ccc(C(F)(F)F)nc2)c2ccc(-c3ncccc3C(F)(F)F)cc2n1` (stereo not drawn) [Compound 348, [2-{[Methyl-(1-phenyl-ethyl)-amino]-methyl}-7-(3-trifluoromethyl-pyridin-2-yl)-quinazolin-4-yl]-(6-trifluoromethyl-pyridin-3-yl)-amine], for which the Ki is less than 1000 nM.

`CN(Cc1nc(Nc2ccc(C(F)(F)F)nc2)c2ccc(-c3ncccc3C(F)(F)F)cc2n1)C1CCc2ccccc21` (stereo not drawn) [Compound 349, [2-[(Indan-1-yl-methyl-amino)-methyl]-7-(3-trifluoromethyl-pyridin-2-yl)-quinazolin-4-yl]-(6-trifluoromethyl-pyridin-3-yl)-amine] had a Ki of less than 1000 nM. Same read-out and setting: next, `CCC(c1ccccc1)N(C)Cc1nc(Nc2ccc(C(F)(F)F)nc2)c2ccc(-c3ncccc3C(F)(F)F)cc2n1` (stereo not drawn) [Compound 350, [2-{[Methyl-1-(1-phenyl-propyl)-amino]-methyl}-7-(3-trifluoromethyl-pyridin-2-yl)-quinazolin-4-yl]-(6-trifluoromethyl-pyridin-3-yl)-amine]: less than 1000 nM. Still for that read-out and setting: the value for `CC1c2ccccc2CCN1Cc1nc(Nc2ccc(C(F)(F)F)nc2)c2ccc(-c3ncccc3C(F)(F)F)cc2n1` (stereo not drawn) [Compound 351, [2-(1-Methyl-3,4-dihydro-1H-isoquinolin-2-ylmethyl)-7-(3-trifluoromethyl-pyridin-2-yl)-quinazolin-4-yl]-(6-trifluoromethyl-pyridin-3-yl)-amine] was less than 1000 nM; that for `FC(F)(F)c1ccc(Nc2nc(CN3CCc4ccccc4C3)nc3cc(-c4ncccc4C(F)(F)F)ccc23)cn1` [Compound 352, [2-(3,4-Dihydro-1H-isoquinolin-2-ylmethyl)-7-(3-trifluoromethyl-pyridin-2-yl)-quinazolin-4-yl]-(6-trifluoromethyl-pyridin-3-yl)-amine] was less than 1000 nM. Same read-out and setting: the value for `CN(Cc1cccc(F)c1)Cc1nc(Nc2ccc(C(F)(F)F)nc2)c2ccc(-c3ncccc3C(F)(F)F)cc2n1` [Compound 353] was less than 1000 nM; that for `Cc1ccccc1CN(C)Cc1nc(Nc2ccc(C(F)(F)F)nc2)c2ccc(-c3ncccc3C(F)(F)F)cc2n1` [Compound 354, [2-{[Methyl-(2-methyl-benzyl)-amino]-methyl}-7-(3-trifluoromethyl-pyridin-2-yl)-quinazolin-4-yl]-(6-trifluoromethyl-pyridin-3-yl)-amine] was less than 1000 nM.

For the molecule `CN(Cc1nc(Nc2ccc(C(F)(F)F)nc2)c2ccc(-c3ncccc3C(F)(F)F)cc2n1)Cc1ccccc1F` [Compound 355, [2-{[(2-Fluoro-benzyl)-methyl-amino]-methyl}-7-(3-trifluoromethyl-pyridin-2-yl)-quinazolin-4-yl]-(6-trifluoromethyl-pyridin-3-yl)-amine], the Ki was less than 1000 nM. For `CN(CCc1ccccc1)Cc1nc(Nc2ccc(C(F)(F)F)nc2)c2ccc(-c3ncccc3C(F)(F)F)cc2n1` [Compound 357, [2-[(Methyl-phenethyl-amino)-methyl]-7-(3-trifluoromethyl-pyridin-2-yl)-quinazolin-4-yl]-(6-trifluoromethyl-pyridin-3-yl)-amine], the Ki is less than 1000 nM. Same read-out and setting: next, `FC(F)(F)c1ccc(Nc2nc(CN3CCCC3)nc3cc(-c4ncccc4C(F)(F)F)ccc23)cn1` [Compound 358, [2-Pyrrolidin-1-ylmethyl-7-(3-trifluoromethyl-pyridin-2-yl)-quinazolin-4-yl]-(6-trifluoromethyl-pyridin-3-yl)-amine]: less than 1000 nM; `FC(F)(F)c1ccc(Nc2nc(CN3CCCCC3)nc3cc(-c4ncccc4C(F)(F)F)ccc23)cn1` [Compound 359, [2-Piperidin-1-ylmethyl-7-(3-trifluoromethyl-pyridin-2-yl)-quinazolin-4-yl]-(6-trifluoromethyl-pyridin-3-yl)-amine]: less than 1000 nM; `CC1CCN(Cc2nc(Nc3ccc(C(F)(F)F)nc3)c3ccc(-c4ncccc4C(F)(F)F)cc3n2)CC1` [Compound 360, [2-(4-Methyl-piperidin-1-ylmethyl)-7-(3-trifluoromethyl-pyridin-2-yl)-quinazolin-4-yl]-(6-trifluoromethyl-pyridin-3-yl)-amine]: less than 1000 nM. On the same count and under the same terms, the value for `FC(F)(F)c1ccc(Nc2nc(CN3CCCCCC3)nc3cc(-c4ncccc4C(F)(F)F)ccc23)cn1` [Compound 361, [2-Azepan-1-ylmethyl-7-(3-trifluoromethyl-pyridin-2-yl)-quinazolin-4-yl]-(6-trifluoromethyl-pyridin-3-yl)-amine] was less than 1000 nM. On the same count and under the same terms, the value for `FC(F)(F)c1ccc(Nc2nc(CN3CCCCCCC3)nc3cc(-c4ncccc4C(F)(F)F)ccc23)cn1` [Compound 362, [2-Azocan-1-ylmethyl-7-(3-trifluoromethyl-pyridin-2-yl)-quinazolin-4-yl]-(6-trifluoromethyl-pyridin-3-yl)-amine] was less than 1000 nM; that for `CC1CCN(Cc2nc(Nc3ccc(C(F)(F)F)nc3)c3ccc(-c4ncccc4C(F)(F)F)cc3n2)CC(C)(C)C1` (stereo not drawn) [Compound 363, (6-Trifluoromethyl-pyridin-3-yl)-[7-(3-trifluoromethyl-pyridin-2-yl)-2-(3,3,5-trimethyl-azepan-1-ylmethyl)-quinazolin-4-yl]-amine] was less than 1000 nM. As to `FC(F)(F)c1ccc(Nc2nc(CN3CCC4(CC3)OCCO4)nc3cc(-c4ncccc4C(F)(F)F)ccc23)cn1` [Compound 364, [2-(1,4-Dioxa-8-aza-spiro[4.5]dec-8-ylmethyl)-7-(3-trifluoromethyl-pyridin-2-yl)-quinazolin-4-yl]-(6-trifluoromethyl-pyridin-3-yl)-amine], the Ki is less than 1000 nM. Same read-out and setting: next, `FC(F)(F)c1ccc(Nc2nc(CN3CCCC4CCCCC43)nc3cc(-c4ncccc4C(F)(F)F)ccc23)cn1` (stereo not drawn) [Compound 365, [2-(Octahydro-quinolin-1-ylmethyl)-7-(3-trifluoromethyl-pyridin-2-yl)-quinazolin-4-yl]-(6-trifluoromethyl-pyridin-3-yl)-amine]: less than 1000 nM; `CN(C)Cc1nc(Nc2ccc(C(F)(F)F)nc2)c2ccc(-c3ncccc3C(F)(F)F)cc2n1` [Compound 366, [2-Dimethylaminomethyl-7-(3-trifluoromethyl-pyridin-2-yl)-quinazolin-4-yl]-(6-trifluoromethyl-pyridin-3-yl)-amine]: less than 1000 nM; `C=CCN(C)Cc1nc(Nc2ccc(C(F)(F)F)nc2)c2ccc(-c3ncccc3C(F)(F)F)cc2n1` [Compound 367, [2-[(Allyl-methyl-amino)-methyl]-7-(3-trifluoromethyl-pyridin-2-yl)-quinazolin-4-yl]-(6-trifluoromethyl-pyridin-3-yl)-amine]: less than 1000 nM. On the same count and under the same terms, the value for `CCN(CC)Cc1nc(Nc2ccc(C(F)(F)F)nc2)c2ccc(-c3ncccc3C(F)(F)F)cc2n1` [Compound 368, [2-Diethylaminomethyl-7-(3-trifluoromethyl-pyridin-2-yl)-quinazolin-4-yl]-(6-trifluoromethyl-pyridin-3-yl)-amine] was less than 1000 nM.

Staying with this test, now noted: Table III; [3H]RTX competition binding, capsaicin receptor.
Consider `CC1CC(C)CN(Cc2nc(Nc3ccc(C(F)(F)F)cc3)c3ccc(-c4ncccc4C(F)(F)F)cc3n2)C1` (stereo not drawn) [Compound 347, [2-(3,5-Dimethyl-piperidin-1-ylmethyl)-7-(3-trifluoromethyl-pyridin-2-yl)-quinazolin-4-yl]-(4-trifluoromethyl-phenyl)-amine], for which the Ki was less than 1000 nM.
